Broadly, the IC50 is the midpoint of a concentration-inhibition curve.

Our source for the IC50 values is patent publication EP4782453A1 (Beyang Therapeutics Co., Ltd., priority 2023, dated 2025).

Like-named read-outs stand apart in the source and are kept apart here.

One assay concerns the target T1, Menin-MLL (Homo sapiens, UniProt O00255).
T1 construct: His-Menin (M1-L615 end); purchased BIORTUS BP9210
T1 sequence (O00255 1-615 isoform O00255-1): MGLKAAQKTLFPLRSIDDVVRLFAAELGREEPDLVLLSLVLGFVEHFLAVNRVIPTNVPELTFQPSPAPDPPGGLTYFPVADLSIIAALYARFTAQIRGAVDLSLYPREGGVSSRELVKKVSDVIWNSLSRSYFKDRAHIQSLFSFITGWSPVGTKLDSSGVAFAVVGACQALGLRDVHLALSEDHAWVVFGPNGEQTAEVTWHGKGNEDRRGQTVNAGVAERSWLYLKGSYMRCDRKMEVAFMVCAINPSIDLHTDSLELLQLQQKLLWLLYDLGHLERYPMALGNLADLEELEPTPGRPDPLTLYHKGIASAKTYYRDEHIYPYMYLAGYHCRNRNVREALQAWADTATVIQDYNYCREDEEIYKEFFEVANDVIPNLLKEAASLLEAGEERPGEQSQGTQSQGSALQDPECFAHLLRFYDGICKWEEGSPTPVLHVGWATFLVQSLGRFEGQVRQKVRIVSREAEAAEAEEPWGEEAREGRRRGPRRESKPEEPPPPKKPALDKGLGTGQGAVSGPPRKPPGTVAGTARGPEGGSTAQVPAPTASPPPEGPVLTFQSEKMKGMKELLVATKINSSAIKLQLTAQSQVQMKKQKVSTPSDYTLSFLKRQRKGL
Briefly: Inhibitory activity against Menin-MLL binding (fluorescence polarization). Particulars: 150 nM His-Menin, 15 nM FITC-MLL, 25°C for 60 min. The method, boiled down:
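His-Menin (M1-L615, 150 nM) preincubated with compound 15 min at 25 °C in HEPES pH 7.5, 50 mM NaCl, 1 mM DTT, 0.01% BSA, then 15 nM FITC-MLL4-43 peptide added for 60 min at 25 °C. Fluorescence polarization read; IC50 from 4-parameter logistic fit, duplicates.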
(Polarisation of emitted light reports the rotation of a fluorescent probe.)

For assay [1], the system named is MOLM-13 (carrying MLL-AF9). Briefly: Inhibition of proliferation of human tumor cells (Alamar Blue, 7 days), MOLM-13. It counts as cell-based. Particulars: Homo sapiens, MOLM-13 cells (carrying MLL-AF9), method calls the value GI50. An excerpt:
Experimental Example 2: Evaluation of Inhibitory Activity of Compounds Against Proliferation of Human Tumor Cells
• Human acute lymphoblastic leukemia cells MV-4-11, purchased from American Type Culture Collection, Catalog Number: CRL-9591; • Human acute myeloid leukemia cells MOLM-13, purchased from COBIOER BIOSCIENCES CO., LTD, Catalog Number: CBP60678; • Human acute myeloid leukemia cells KG-1a, purchased from American Type Culture Collection, Catalog Number: CCL-246.1; • Inverted Microscope, purchased from Olympus Tokyo; • Countess™ Automated Cell Counter, purchased from Invitrogen, Model: C10281; and • Multilabel Reader, purchased from Bio-Tek, Model: Synergy HT.
MV-4-11 cells were cultured in an IMDM medium containing 10% fetal bovine serum, KG-a cells were cultured in an IMDM medium containing 20% fetal bovine serum, or MOLM-13 cells were cultured in an RPMI-1640 medium containing 20% fetal bovine serum, each supplemented with 100 U·mL^-1 penicillin and 100 µg·mL^-1 streptomycin. These cells were cultured at 37°C with 5% CO2. The suspensions of individual cell lines were prepared in their respective media and seeded into 96-well plates at a density of 4,000 cells/well for MV-4-11 and MOLM-13 cells, or 3,000 cells/well for KG-1a cells. On the day of the experiment, a compound stock solution was diluted in a 3-fold or 4-fold gradient using DMSO. Each gradient-diluted stock solution was then further diluted 250-fold with a complete medium to prepare a series of working solutions at different concentrations. Subsequently, 100 µL of working solution (containing a 2-fold concentration series of the test compound) was added to each well, with duplicate wells set up for each concentration.
Seven days after compound addition (on Day 7), an Alamar Blue assay reagent (MCE, HY-111391 / CS-0040317) was added to measure the fluorescence intensity in each well. Wells containing the cells in the growth medium supplemented with 0.1% DMSO (Day 7) served as high-read control wells. The readouts from the wells containing the cells in the growth medium supplemented with 0.1% DMSO on the day of compound addition (Day 0) served as low-reading control well. GraphPad Prism software was used to calculate the concentration required to inhibit 50% of cell proliferation (GI50), which serves as a cell proliferation inhibition activity index.
A general note: Resazurin is reduced to fluorescent resorufin, in cell work by metabolically active cells.

The mark [2] stands for this setting: fluorescence polarization, read-out: Menin-MLL IC50.
The mark [3] stands for this setting: Menin-MLL IC50, fluorescence polarization.

As to `Cc1nc(F)c2c(-c3ccc(F)cc3C(=O)N3CCOC[C@H]3C)cc(C3CN([C@H](CCCN4CC5(COC5)C4)C(C)C)C3)cn12` [Example 369], the 50% inhibitory concentration (IC50) at Menin-MLL (setting [2]) is 3.8 nM; in assay [1] (168 h), 3 nM.
Consider `CCN(C(=O)c1cc(F)ccc1-c1cc(C2CN([C@H](CCCN3C4COCC3C4)C(C)C)C2)cc2c1cnn2C)C(C)C` [Example 426], for which the IC50 stood at 3.2 nM at Menin-MLL (setting [2]) and 30 nM in assay [1] (168 h).
On to `CCN(C(=O)c1cc(F)ccc1-c1cc(C2CN([C@H](CCCN3CCNCC3)C(C)C)C2)cn2c(C)ncc12)C(C)C` [Example 472], for which the values for the IC50 (at Menin-MLL (setting [2]); in assay [1] (168 h)) were 1.5 nM and 24 nM, respectively.
Consider `CCN(C(=O)c1cc(F)ccc1-c1cc(C2CN([C@H](CCCN3CCN(CC(=O)N(C)C)CC3)C(C)C)C2)cn2c(C)ncc12)C(C)C` [Example 473], for which the values for the IC50 (at Menin-MLL (setting [2]); in assay [1] (168 h)) were 1.1 nM and 16 nM, respectively.
The corresponding values for `CCN(C(=O)c1cc(F)ccc1-c1cc(C2CN([C@H](CC[C@H]3COCCN3)C(C)C)C2)cn2c(C)ncc12)C(C)C` [Example 457-2, N-ethyl-5-fluoro-2-(3-methyl-6-{1-[(3R)-4-methyl-1-[(3S)-morpholin-3-yl]pentan-3-yl]azacyclobutan-3-yl}imidazo[1,5-a]pyridin-8-yl)-N-(isopropyl)benzamide] are 2.6 nM and 5 nM.
The corresponding values for `CCN(C(=O)c1cc(F)ccc1-c1cc(C2CN([C@H](CCCN3CCN(C)[C@H](CO)C3)C(C)C)C2)cn2c(C)ncc12)C(C)C` [Example 507] are 1 nM and 15 nM.
For the molecule `COCCN(C(=O)c1cc(F)ccc1-c1cc(C2CN([C@H](CCCN3C[C@H]4C[C@@H]3CO4)C(C)C)C2)cn2c(C)ncc12)C(C)C` [Example 467-1, 5-fluoro-N-(2-methoxyethyl)-2-(3-methyl-6-{1-[(3R)-2-methyl-6-[(1R,4R)-2-oxa-5-azadicyclo[2.2.1]heptan-5-yl]hexan-3-yl]azacyclobutan-3-yl}imidazo[1,5-a]pyridin-8-yl)-N-(isopropyl)benzamide], the IC50 at Menin-MLL (setting [3]) came out at 1.5 nM; in assay [1] (MOLM-13, 168 h), 23 nM.
With `Cc1ncc2c(-c3ccc(F)cc3C(=O)N3CCOC[C@H]3C)cc(C3CN([C@H](CCCN4CCN(CCF)CC4)C(C)C)C3)cn12` [Example 363], the IC50 is 6.2 nM at Menin-MLL (setting [2]) and 20 nM in assay [1] (168 h).
The corresponding values for `CCN(C(=O)c1cc(F)ccc1-c1cc(C2CN([C@H](CCCN3CCC(NS(=O)(=O)CC)CC3)C(C)C)C2)cc2c1cnn2C)C(C)C` [Example 411] are 2.7 nM and 12 nM.
For `CCN(C(=O)c1cc(F)ccc1-c1cc(C2CN([C@H](CN3CCN(CCO)CC3)C(C)C)C2)cc2c1cnn2C)C(C)C` [Example 416-2, N-ethyl-5-fluoro-2-(6-{1-[(2S)-1-[4-(2-hydroxyethyl)piperazin-1-yl]-3-methylbutan-2-yl]azacyclobutan-3-yl}-1-methyl-1H-indazol-4-yl)-N-(isopropyl)benzamide], in that order: 10.6 nM and 69 nM.
Take `Cc1nc(F)c2c(-c3ccc(F)cc3C(=O)N3CCOC[C@H]3C)cc(C3CN(C(CC[C@H]4COCCN4)C(C)C)C3)cn12` (stereo partly drawn) [Example 373, (3R)-4-{5-fluoro-2-[1-fluoro-3-methyl-6-(1-{4-methyl-1-[(3S)-morpholin-3-yl]pentan-3-yl}azacyclobutan-3-yl)imidazo[1,5-a]pyridin-8-yl]benzoyl}-3-methylmorpholine]: the IC50 at Menin-MLL (setting [2]) was 6.4 nM; in assay [1] (168 h), 6 nM.
Take `CCN(C(=O)c1cc(F)ccc1-c1cc(C2CN([C@H](CN3CCN(C[C@@H](O)CO)CC3)C(C)C)C2)cc2c1cnn2C)C(C)C` [Example 434]: the half-maximal inhibitory concentration (IC50) at Menin-MLL (setting [3]) stood at 8.8 nM; in assay [1] (MOLM-13, 168 h) it was 32 nM.
Consider `Cc1ncc2c(-c3ccc(F)cc3C(=O)N(C)C(C)C)cc(C3CN(C(CCCN4CCN(C)CC4)C(C)C)C3)cn12` (centres unmarked) [Example 436, 5-fluoro-N-methyl-2-(3-methyl-6-{1-[2-methyl-6-(4-methylpiperazin-1-yl)hexan-3-yl]azacyclobutan-3-yl}imidazo[1,5-a]pyridin-8-yl)-N-(isopropyl)benzamide], for which the IC50 is 8.3 nM on Menin-MLL (setting [2]) and 42 nM in assay [1] (168 h).
The corresponding values for `CCN(C(=O)c1cc(F)ccc1-c1cc(C2CN([C@H](CN3CCN(C(CO)CO)CC3)C(C)C)C2)cn2c(C)ncc12)C(C)C` [Example 435] are 4.9 nM and 26 nM.
The corresponding values for `CC(=O)N1CC2(CN(CCC[C@H](C(C)C)N3CC(c4cc(-c5ccc(F)cc5C(=O)N5CCOC[C@H]5C)c5c(F)nc(C)n5c4)C3)C2)C1` [Example 370, 1-{6-[(4R)-4-[3-(1-fluoro-8-{4-fluoro-2-[(3R)-3-methylmorpholin-4-carbonyl]phenyl}-3-methylimidazo[1,5-a]pyridin-6-yl)azacyclobutan-1-yl]-5-methylhexyl]-2,6-diazaspiro[3.3]heptan-2-yl}ethan-1-one] are 3.8 nM and 4.2 nM.
For `CCN(C(=O)c1cc(F)ccc1-c1cc(C2CN([C@H](CN3CCN(C(CO)CO)CC3)C(C)C)C2)cc2c1cnn2C)C(C)C` [Example 419], the IC50 on Menin-MLL (setting [2]) was 8.1 nM; in assay [1] (168 h), 85 nM.
For the molecule `CCN(C(=O)c1cc(F)ccc1-c1cc(C2CN([C@H](CCCN3CCN(C4(CO)COC4)CC3)C(C)C)C2)cn2c(C)ncc12)C(C)C` [Example 474, N-ethyl-5-fluoro-2-(6-{1-[(3R)-6-{4-[3-(hydroxymethyl)oxacyclobutan-3-yl]piperazin-1-yl}-2-methylhexan-3-yl]azacyclobutan-3yl}-3-methylimidazo[1,5-a]pyridin-8-yl)-N-(isopropyl)benzamide], the IC50 on Menin-MLL (setting [3]) was determined as 0.9 nM; in assay [1] (MOLM-13, 168 h), 11 nM.
Consider `CCN(C(=O)c1cc(F)ccc1-c1cc(C2CN([C@H](CCCN3CCN(CCO)CC34COC4)C(C)C)C2)cn2c(C)ncc12)C(C)C` [Example 482, N-ethyl-5-fluoro-2-(6-{1-[(3R)-6-[8-(2-hydroxyethyl)-2-oxa-5,8-diazaspiro[3.5]non-5-yl]-2-methylhexan-3-yl]azacyclobutan-3-yl}-3-methylimidazo[1,5-a]pyridin-8-yl)-N-(isopropyl)benzamide], for which the IC50 on Menin-MLL (setting [2]) is 2.4 nM; in assay [1] (168 h), 36 nM.
For `CCN(C(=O)c1cc(F)ccc1-c1cc(C2CN([C@H](CCCN3CCN(C(=O)C4(C#N)COC4)CC3)C(C)C)C2)cn2c(C)ncc12)C(C)C` [Example 495], in that order: 2.4 nM and 27 nM.
The corresponding values for `CCN(C(=O)c1cc(F)ccc1-c1cc(C2CN([C@H](CCCN3CCO[C@H](CO)C3)C(C)C)C2)cn2c(C)ncc12)C(C)C` [Example 450] are 5.2 nM and 21 nM.
For `CCN(C(=O)c1cc(F)ccc1-c1cc(C2CN([C@H](CCCN3C4CC3CN(C(C)=O)C4)C(C)C)C2)cn2c(C)ncc12)C(C)C` [Example 387], in that order: 2.5 nM and 8.9 nM.
Take `Cc1nc(F)c2c(-c3ccc(F)cc3C(=O)N3CCOC[C@H]3C)cc(C3CN([C@H](CCCN4CC5CC(C4)N5C)C(C)C)C3)cn12` [Example 349]: the IC50 on Menin-MLL (setting [2]) amounted to 4 nM; in assay [1] (168 h), 16.5 nM.
